What was measured:
Carragheenin foot edema = experiment: Carragheenin foot edema; assay type: in vivo, rats (male, Wister type); conditions: 100 mg/Kg oral, 1 h before carragheenin, foot volume 3 h after injection; for inhibition in vivo at 100 mg/kg: Rattus norvegicus, read-out: Anti-Inflammatory Effect Control Ratio, Carragheenin Foot Edema
Procedure: a. Carragheenin food edema
The test was conducted according to the method of C. […] Groups of rats (male rats of the Wister type having a body weight of 140-170 g), each group consisting of 5 to 11 rats, were caused to abstain from food for 16 hours, and a 4% gum arabic suspension of a test compound was orally administered to the rats in an amount of 100 mg/Kg. of the test compounds. Immediately, rats were allowed to drink 5 ml of purified water. […] After 3 hours had passed from the injection, the volume of the right foot was measured again to determine the increase of the volume of the right foot. In control groups, only a 4% gum arabic liquor free of a test compound was orally administered, and subsequent procedures were conducted similarly to determine the increase of the volume of the right foot. The carragheenin foot edema control ratio was calculated according to the following formula: [formula] wherein C indicates the foot volume increase in the control group and D indicates the foot volume increase in the test compound-administered group.

Ultraviolet erythema = experiment: Ultraviolet erythema; assay type: in vivo, guinea pigs (male, Hartley type); conditions: 10 mg/Kg oral, 1 h before irradiation, read 3 h after irradiation; for inhibition in vivo at 10 mg/kg: Cavia porcellus, light or radiation study, read-out: Anti-Inflammatory Effect Control Ratio, Ultraviolet Erythema
Procedure: The test was conducted according to a modification of the method of C. […] Groups of guinea pigs (male guinea pigs of the Hartley type having a body weight of 300 to 450 g), each group consisting of 5 to 10 guinea pigs, were employed for the test. Hairs were removed from backs of the guinea pigs by an electric hair-clipper and a depilatory agent. The guinea pigs were caused to abstain from food for 18 to 19 hours, and a test compound was orally administered in an amount of 10 mg/Kg in the form suspended in a 4% gum arabic liquor. In the case of control groups, only a 4% gum arabic liquor was administered. An adhesive plaster according to the Japanese pharmacopoeia, on which three small holes having a diameter of 5 mm were opened, was applied to the hair-removed portion of the back. […] When 3 hours had passed from the irradiation, the degree of the formation of erythema was determined. One point was given to the guinea pig on which a definite round erythema was formed, a point of 0.5 was given to the guinea pig on which formation of erythema was observed but its contour was not definite, and a point of 0 was given to the guinea pig on which no erythema was formed. Total points were calculated in both the test compound-administered group and the control group, and the control ratio was calculated from these total points. [formula]

Adjuvant arthritis = experiment: Adjuvant arthritis; assay type: in vivo, rats (female, Wister type); conditions: 9 mg/Kg per day oral for 25 days, foot volume on 23rd day from adjuvant injection; for inhibition in vivo at 9 mg/kg: Rattus norvegicus, 552 h, read-out: Anti-Inflammatory Effect Control Ratio, Adjuvant Arthritis
Procedure: With respect to the foregoing compounds, anti-inflammatory effects against carragheenin foot edema, ultraviolet erythema and adjuvant arthritis were tested by using rate according to the following methods to obtain results shown below.
The test was conducted according to a modification of the method of B. B. Newbould (Brit. J. Pharmacol., 21, 127 (1963)). Groups of female rats of the Wister type having a body weight of 180 - 240 g, each group consisting of 4 to 8 rats, were tested. 0.05 ml of an adjuvant (formed by suspending 5 mg of dead tuberculous bacillus, Aoyama B strain, in 1 ml of fluid paraffin according to the Japanese pharmacopoeia) was hypodermically injected in the right foot heel of each rat. A test compound was orally administered in a dosage of 9 mg/Kg per day in the form suspended in a 5% gum arabic liquor continuously for 25 days from one day before the injection of the adjuvant. In the case of the control group, only a 5% gum arabic liquor was continuously administered in the same manner. The volume of the right foot was measured 1 day before the injection of the adjuvant and on the 23rd day from the injection of the adjuvant with respect to each group. Thus, the increase of the foot volume was calculated in either the test compound-administered group or the control group, and the ratio of control of the adjuvant arthritis was calculated according to the following formula: [formula] in which C is the increase of the volume of the right foot in the control group and D indicates the increase of the volume of the right foot in the test compound-administered rat group.

inflammatory pain = experiment: Analgesic effect on inflammatory pain (modified Randall and Selitto); assay type: in vivo, rats (male, Wister type); conditions: 100 mg/Kg oral, 1 hour before carragheenin; pain measured 3 hours after injection
Procedure: Groups of male rats of the Wister type having a body weight of about 150 g were tested, each group consisting of 5 rats. The rats were caused to abstain from food overnight, and 0.05 ml of a 1% carragheenin solution was hypodermically injected into the right hind leg of each rat. […] The test compound was orally administered in a dosage of 100 mg/Kg 1 hour before the injection of carragheenin. [formula]

male mice = experiment: in vivo; conditions: 7 days
Procedure: With respect to the foregoing test compounds, the acute toxicity was examined by employing mice according to the following method.
Groups of male mice of the dd type having a body weight of 18 to 22 g, each, group consisting of 5 mice, were tested to determine the acute toxicity. The test compound was orally administered in a dosage indicated in Table 3a in the form suspended in 5% gum arabic liquor. The determination was conducted 7 days after the administration. Further, the LD50 values were calculated according to the method of Lichfield-Wilcoxon.

Structure (SMILES) | inhibition in vivo at 100 mg/kg (Carragheenin foot edema) [%] | inhibition in vivo at 10 mg/kg (Ultraviolet erythema) [%] | inhibition in vivo at 9 mg/kg (Adjuvant arthritis) [%] | Analgesic Coefficient (inflammatory pain) | Number of Dead Mice/Number of Mice Tested (male mice; 2 g/kg oral) | Number of Dead Mice/Number of Mice Tested (male mice; 3 g/kg oral) | Anti-Inflammatory Effect Control Ratio, Carragheenin Foot Edema (Carragheenin foot edema) [%] | Anti-Inflammatory Effect Control Ratio, Ultraviolet Erythema (Ultraviolet erythema) [%] | Anti-Inflammatory Effect Control Ratio, Adjuvant Arthritis (Adjuvant arthritis) [%] | Number of Dead Mice/Number of Mice Tested (male mice; 1 g/kg oral) | Number of Dead Mice/Number of Mice Tested (male mice; 4 g/kg oral)
O=C(O)c1ccccc1Nc1cc(F)cc2ccccc12 [Compound 7, N-(3-fluoro-1-naphthyl)anthranilic acid] | 35.4 | 44 | 36.1 | 1.70 | 1 / 5 | 5 / 5 |  |  |  |  | 
CCCCc1ccc(Nc2ccccc2C(=O)O)c2ccccc12 [4 Butyl-] |  |  |  | 1.41 | 0 /10 | 5 /10 | 16.8 | 22.3 | 1.3 | 0 /10 | 
CCCCCCc1ccc2ccccc2c1Nc1ccccc1C(=O)O [2 Hexyl-, N-(2-n-hexyl-naphthyl-1)anthranilic acid] | 8.5 | 44 |  | 1.28 | 0 /10 | 0 /10 |  |  |  | 0 /10 | 
O=C(O)c1ccccc1Nc1c(Cl)cc(Br)c2ccccc12 [Compound 8, N-(2-chloro-4-bromo-1-naphthyl)anthranilic acid] | 27.6 | 77.3 | 31.2 | 1.72 | 0 / 5 | 0 / 5 |  |  |  | 0 / 5 | 4 / 5
CC(C)Cc1ccc(Nc2ccccc2C(=O)O)c2ccccc12 [4 iso Butyl-, N-(4-isobutyl-naphthyl-1)anthranilic acid] |  |  |  | 1.37 | 0 /10 | 2 /10 | 41.9 | 43.8 | 31.0 | 0 /10 | 
O=C(O)c1ccccc1Nc1c(Cl)ccc2ccccc12 [Compound 3, N-(2-chloro-1-naphthyl)anthranilic acid] | 46.6 | 66.7 | 36.9 | 1.62 | 2 / 5 | 4 / 5 |  |  |  | 0 / 5 | 5 / 5
Cc1cc(Nc2ccccc2C(=O)O)c2ccccc2c1 [Compound 9, N-(3-methyl-1-naphthyl)anthranilic acid] | 44.3 | 46.3 |  |  | 3 / 5 | 5 / 5 |  |  |  | 0 / 5 | 
Cc1cc(Nc2ccccc2C(=O)O)c2ccccc2c1C [Compound 6, N-(3,4-dimethyl-1-naphthyl)anthranilic acid] | 47.1 | 17.1 | 17.2 | 1.28 | 2 / 5 | 5 / 5 |  |  |  | 0 / 5 | 5 / 5
CCc1ccc(Nc2ccccc2C(=O)O)c2ccccc12 [4 Ethyl-] |  |  |  | 1.20 | 2 /10 | 4 /10 | 46.2 | 60.0 | 21.5 | 0 /10 | 
Cc1cccc(Nc2ccccc2C(=O)O)c1C [Compound M, mefenamic acid, reference compound] | 50.6 | 38.1 | 48.1 | 1.50 | 5 / 5 |  |  |  |  | 5 / 5 | 
O=C(O)c1ccccc1Nc1cc(Cl)cc2ccccc12 [Compound 5, N-(3-chloro-1-naphthyl)anthranilic acid] | 31.4 | 40 | 41.4 | 1.31 | 0 / 5 | 4 / 5 |  |  |  | 0 / 5 | 5 / 5
O=C(O)c1ccccc1Nc1c(F)ccc2ccccc12 [Compound 4, N-(2-fluoro-1-naphthyl)anthranilic acid] | 27.6 | 48.7 | 50 | 1.60 | 0 / 5 | 5 / 5 |  |  |  | 0 / 5 | 5 / 5
CCCCc1ccc2ccccc2c1Nc1ccccc1C(=O)O [N-(2-butyl-naphthyl-1-anthranilic acid] | 31 | 50.3 | 26.2 | 1.38 | 0 /10 | 0 /10 |  |  |  | 0 /10 | 
